Experimental data taken from ChEMBL document CHEMBL1138245, “Discovery of N1-(6-chloroimidazo[2,1-b][1,3]thiazole-5-sulfonyl)tryptamine as a potent, selective, and orally active 5-HT(6) receptor agonist” (J Med Chem, 2007).

Tests used:
[1] = molecular target: T1, 5-hydroxytryptamine receptor 6 (Homo sapiens, UniProt P50406); experiment: Antagonist activity at human 5HT6 receptor expressed in HeLa cells assessed as cAMP production; type: functional, cell-based
[2] = molecular target: T1, 5-hydroxytryptamine receptor 6; experiment: Displacement of [3H]LSD from human 5HT6 receptor expressed in HeLa cells; type: cell-based

T1 sequence (P50406 whole entry): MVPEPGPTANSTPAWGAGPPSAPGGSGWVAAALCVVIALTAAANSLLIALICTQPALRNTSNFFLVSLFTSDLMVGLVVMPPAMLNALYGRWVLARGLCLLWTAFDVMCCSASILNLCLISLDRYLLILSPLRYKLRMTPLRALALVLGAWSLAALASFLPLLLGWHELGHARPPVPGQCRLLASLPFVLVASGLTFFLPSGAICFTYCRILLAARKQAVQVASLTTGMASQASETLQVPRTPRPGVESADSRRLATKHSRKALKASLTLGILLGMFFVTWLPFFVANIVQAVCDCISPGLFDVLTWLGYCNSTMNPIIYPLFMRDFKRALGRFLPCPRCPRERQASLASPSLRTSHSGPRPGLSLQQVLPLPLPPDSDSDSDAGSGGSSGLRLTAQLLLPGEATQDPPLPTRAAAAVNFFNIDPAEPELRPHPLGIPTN

COc1ccc(S(=O)(=O)n2cc(CCN)c3ccccc32)cc1OC showed an IC50 [1] of 17.5 nM, an Imax [1] of 80.5% and a Ki [2] of 7 nM.
